Key:
[1] = biological target: T1, human liver glycogen phosphorylase a (HLGPa) (Homo sapiens, UniProt P06737); assay: GPa activity assay, reverse direction (release of inorganic phosphate from glucose-1-phosphate), HLGPa; format: biochemical; conditions: recombinant human liver GPa, glucose present
T1 construct: made in house; host or cells: E. coli XL-1 Blue (pKK233-2) or Sf9 insect cells (pBlueBac II baculovirus)
T1 sequence (P06737 1-847): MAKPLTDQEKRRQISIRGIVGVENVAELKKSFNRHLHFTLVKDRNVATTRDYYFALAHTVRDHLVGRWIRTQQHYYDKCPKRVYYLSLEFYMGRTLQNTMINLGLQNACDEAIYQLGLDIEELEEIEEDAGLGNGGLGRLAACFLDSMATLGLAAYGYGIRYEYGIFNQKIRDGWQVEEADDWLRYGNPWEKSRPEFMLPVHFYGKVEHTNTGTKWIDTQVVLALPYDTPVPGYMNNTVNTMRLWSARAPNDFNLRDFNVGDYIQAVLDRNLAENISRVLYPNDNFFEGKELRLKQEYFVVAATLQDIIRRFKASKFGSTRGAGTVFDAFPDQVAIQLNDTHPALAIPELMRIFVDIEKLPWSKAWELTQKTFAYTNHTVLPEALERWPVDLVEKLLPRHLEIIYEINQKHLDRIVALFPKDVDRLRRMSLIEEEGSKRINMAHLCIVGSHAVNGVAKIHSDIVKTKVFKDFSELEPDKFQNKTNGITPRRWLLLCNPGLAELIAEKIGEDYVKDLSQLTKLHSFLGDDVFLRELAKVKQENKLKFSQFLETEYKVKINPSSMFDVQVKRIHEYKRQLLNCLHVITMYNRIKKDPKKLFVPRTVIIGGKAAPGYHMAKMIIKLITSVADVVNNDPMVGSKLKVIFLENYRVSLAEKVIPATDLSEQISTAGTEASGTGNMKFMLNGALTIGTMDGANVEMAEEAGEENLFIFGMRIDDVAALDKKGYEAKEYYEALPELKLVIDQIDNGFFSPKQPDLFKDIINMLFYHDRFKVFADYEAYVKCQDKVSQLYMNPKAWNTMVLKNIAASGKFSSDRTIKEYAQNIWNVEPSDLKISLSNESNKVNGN
Procedure: (§1) In this invention, enzyme activity is determined by measurement of the reverse activity of GPa, i.e., by measuring the release of phosphate due to the incorporation of glucose-1-phosphate into glycogen, where the amount of phosphate released is determined using the spectrophotometric method and experimental conditions described hereinbelow.
(§2) The three different purified glycogen phosphorylase (GP) isoenzymes from a human source, wherein glycogen phosphorylase is in the activated “a” state (referred to as glycogen phosphorylase a, or the abbreviation GPa), and referred to here as human liver glycogen phosphorylase a (HLGPa), human muscle glycogen phosphorylase a (HMGPa), and human brain glycogen phosphorylase a (HBGPa), can be obtained by the following procedures.
(§3) The effect of the compounds of Formula I or IA on the activity of the activated form of glycogen phosphorylase (GPa) can be determined by one of two methods; glycogen phosphorylase a activity is measured in the forward direction by monitoring the production of glucose-1-phosphate from glycogen or by following the reverse reaction, measuring glycogen synthesis from glucose-I-phosphate by the release of inorganic phosphate. All reactions are run in triplicate in 96-well microtiter plates and the change in absorbance due to formation of the reaction product is measured at the wavelength specified below in a MCC/340 MKII Elisa Reader (Lab Systems, Finland), connected to a Titertech Microplate Stacker (ICN Biomedical Co, Huntsville, Ala.).
(§4) Buffer B is at pH 7.2 and contains 50 mM HEPES, 100 mM KCl, 2.5 mM EGTA, 2.5 mM MgCl2 and 0.5 mM dithiothreitol. […] The compounds to be tested are added as 5 μL of solution in 14% DMSO prior to the addition of the enzyme. […] After a 20 minute incubation at room temperature, the absorbance is measured at 620 nm.
(§5) The above assays carried out with a range of concentrations of test compound allows the determination of an IC50 value (as defined hereinabove, see e.g., p. 14) for the in vitro inhibition of GPa enzyme activity by that test compound.

[2] = biological target: T2, human muscle glycogen phosphorylase a (HMGPa) (Homo sapiens, UniProt P11217); assay: GPa activity assay, reverse direction (release of inorganic phosphate from glucose-1-phosphate), HMGPa; format: biochemical; conditions: recombinant human muscle GPa, glucose present
T2 construct: made in house; host or cells: E. coli XL-1 Blue (pKK233-2)
T2 sequence (P11217 1-842): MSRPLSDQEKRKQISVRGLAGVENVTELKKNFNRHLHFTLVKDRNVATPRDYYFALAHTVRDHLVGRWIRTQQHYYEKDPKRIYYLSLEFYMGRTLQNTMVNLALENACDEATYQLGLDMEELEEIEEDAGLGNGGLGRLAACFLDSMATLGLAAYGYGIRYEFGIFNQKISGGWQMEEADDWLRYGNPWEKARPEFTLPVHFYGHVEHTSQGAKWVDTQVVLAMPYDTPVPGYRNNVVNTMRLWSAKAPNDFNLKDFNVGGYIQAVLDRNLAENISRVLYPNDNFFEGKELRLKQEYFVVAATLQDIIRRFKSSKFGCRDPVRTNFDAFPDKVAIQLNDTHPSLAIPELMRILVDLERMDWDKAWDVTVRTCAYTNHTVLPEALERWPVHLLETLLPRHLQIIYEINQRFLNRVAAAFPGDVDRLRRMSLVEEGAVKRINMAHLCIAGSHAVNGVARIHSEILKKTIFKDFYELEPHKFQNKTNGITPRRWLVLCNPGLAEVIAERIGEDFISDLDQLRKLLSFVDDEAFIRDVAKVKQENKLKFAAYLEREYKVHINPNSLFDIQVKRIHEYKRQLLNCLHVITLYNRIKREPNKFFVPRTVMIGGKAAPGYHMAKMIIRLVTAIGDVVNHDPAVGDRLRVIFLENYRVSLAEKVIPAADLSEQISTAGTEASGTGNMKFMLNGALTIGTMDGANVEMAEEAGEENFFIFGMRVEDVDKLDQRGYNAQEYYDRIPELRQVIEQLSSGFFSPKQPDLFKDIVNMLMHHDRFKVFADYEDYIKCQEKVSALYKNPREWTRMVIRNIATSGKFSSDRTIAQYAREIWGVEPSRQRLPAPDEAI
Procedure: as §1, §2, §3, §4, §5

Row | Compound | IC50 [1] [nM] | IC50 [2] [nM]
1 | O=C(N[C@@H](Cc1ccccc1)C(=O)N1CC(O)C1)c1cc2cc(Cl)ccc2[nH]1 [5-chloro-1H-indole-2-carboxylic acid [(1S)-benzyl-2-(3-hydroxy-azetidin-1-yl)-2-oxo-ethyl]-amide] | 65 | 121
2 | O=C(N[C@@H](Cc1ccccc1)[C@@H](O)C(=O)N1C[C@H](O)[C@@H](O)C1)c1cc2cc(Cl)ccc2[nH]1 [5-chloro-1H-indole-2-carboxylic acid [(1S)-benzyl-(2R)-hydroxy-3-((3S,4S)-dihydroxy-pyrrolidin-1-yl)-3-oxopropyl]-amide] | 73 | 90
3 | O=C(NCC(=O)N1CCSC1)c1cc2cc(Cl)ccc2[nH]1 [5-chloro-1H-indole-2-carboxylic acid (2-oxo-2-thiazolidin-3-yl-ethyl)-amide] | 307 | 433
4 | O=C(N[C@@H](Cc1ccccc1)C(=O)N1CC(=NO)C1)c1cc2cc(Cl)ccc2[nH]1 [5-chloro-1H-indole-2-carboxylic acid [(1S)-benzyl-2-(3-hydroxyimino-azetidin-1-yl)-2-oxo-ethyl]-amide] | 65 | 84
5 | O=C(N[C@@H](Cc1ccccc1)[C@@H](O)C(=O)N1CC(O)C1)c1cc2cc(Cl)ccc2[nH]1 [5-chloro-1H-indole-2-carboxylic acid [(1S)-benzyl-3-((3-hydroxyazetidin-1-yl)-(2R)-hydroxy-3-oxopropyl]-amide] | 236 | 706
6 | O=C(N[C@@H](Cc1ccccc1)C(=O)N1C[C@H](O)[C@@H](O)C1)c1cc2cc(Cl)ccc2[nH]1 [5-chloro-1H-indole-2-carboxylic acid [(1S)-benzyl-2-((3S,4S)-dihydroxy-pyrrolidin-1-yl)-2-oxo-ethyl-amide] | 137 | 71

Compounds with a lower IC50 [1], results first:

Row | IC50 [1] [nM] | IC50 [2] [nM] | Compound
7 | 45 | 85 | O=C(NC(Cc1ccccc1)C(=O)N1CCC(O)C1)c1cc2cc(Cl)ccc2[nH]1 (centres unmarked) [5-chloro-1H-indole-2-carboxylic acid [1-benzyl-2-(3-hydroxypyrrolidin-1-yl)-2-oxo-ethyl]-amide]
8 | 30 | 97 | O=C(N[C@@H](Cc1ccccc1)C(=O)N1C[C@@H](O)[C@@H](O)C1)c1cc2cc(Cl)ccc2[nH]1 [5-chloro-1H-indole-2-carboxylic acid [(1S)-benzyi-2-(cis-3,4-dihydroxypyrrolidin-1-yl)-2-oxo-ethyl]-amide]
9 | 59 | 385 | O=C(N[C@@H](Cc1ccccc1)[C@@H](O)C(=O)N1C[C@@H](O)[C@@H](O)C1)c1cc2cc(Cl)ccc2[nH]1 [5-chloro-1H-indole-2-carboxylic acid [(1S)-benzyl-3-(cis-3,4-dihydroxy-pyrrolidin-1-yl)-(2R)-hydroxy-3-oxopropyl]-amide]
10 | 54 | 96 | O=C(N[C@@H](Cc1ccccc1)[C@@H](O)C(=O)N1CC[C@H](O)C1)c1cc2cc(Cl)ccc2[nH]1 [5-chloro-1H-indole-2-carboxylic acid [(1S)-benzyl-(2R)-hydroxy-3-((3S)-hydroxy-pyrrolidin-1-yl)-3-oxopropyl]-amide]
